Laboratory results from US9783536B2, “Nitrogen-containing heterocyclic compound or salt thereof” (FUJIFILM Corporation, priority 2013, dated 2017).
Where a name gives a salt, the structure may show the parent alone. Read-outs that look alike come from different tables or passages of the source.

Legend:
human PI3Kα protein = target: T1, human PI3Kα protein (Homo sapiens, UniProt P42336); test: PI3Kα enzyme assay (ADP-Glo); assay type: biochemical; conditions: read-out: PI3Kα enzyme inhibitory activity
T1 construct: purchased Carna Biosciences, Inc; host or cells: baculovirus expression system
Experimental: In a PI3Kα enzyme assay, a product (manufactured by Carna Biosciences, Inc.) obtained by biotinylating a human PI3Kα protein produced by using a baculovirus expression system was used. In addition, in the detection of enzyme activity, ADP-GLO KINASE ASSAY (trade name, manufactured by PROMEGA Corporation) was used.
10 μL of a reaction liquid (4.5 nmol/L PI3Kα, 40 mmol/L Tris-HCl, 20 mmol/L MgCl2, 0.1% BSA, pH 7.5) including the human PI3Kα protein and a test compound having a predetermined concentration was allowed to stand at room temperature for 15 minutes. Then, 5 μL of a mixture liquid of L-α-phosphatidylinositol 4,5-diphosphate (PIP2) (manufactured by Sigma-Aldrich Co. LLC.) and ATP (manufactured by Sigma-Aldrich Co. LLC.), which are substrates, was added thereto such that final concentrations thereof became 50 μmol/L and 100 μmol/L, respectively, and an enzyme reaction was performed by allowing to stand at 25° C. for 60 minutes.
After the reaction, the enzyme reaction was stopped by adding 15 μL of an ADP-GLO REAGENT (trade name, manufactured by PROMEGA Corporation) thereto and allowing to stand at room temperature for 60 minutes. Then, 30 μL of a KINASE DETECTION REAGENT (trade name, manufactured by PROMEGA Corporation) was added thereto, followed by allowing to stand at room temperature for 40 minutes, and ADP produced by the enzyme reaction was quantified by emission intensity.
ENVISION (trade name, manufactured by Perkin Elmer Inc.) was used for the measurement of the emission intensity.
(§1) The inhibitory activities of the compounds were evaluated using IC50 (50% inhibitory concentration). The IC50 was calculated using XLFIT (trade name, manufactured by ID Business Solutions).

[1] = target: T2, GST fusion human ERK2 protein (Homo sapiens, UniProt P28482); test: ERK2 enzyme assay (2); assay type: biochemical; conditions: read-out: ERK2 enzyme inhibitory activity (2)
T2 construct: purchased Carna Biosciences, Inc; host or cells: E. coli expression system
Experimental: In an ERK2 enzyme assay, GLUTATHIONE S-TRANSFERASE (GST) FUSION HUMAN ERK2 PROTEIN (manufactured by Carna Biosciences, Inc.), which was produced by using an E. coli expression system, was used.
12 μL of a reaction liquid (1.25 nmol/L ERK2, 100 mmol/L Hepes, 10 mmol/L MgCl2, 1.5 mmol/L DTT, 0.003% Brij35, pH 7.5) including ERK2 protein and a test compound having a predetermined concentration was allowed to stand at room temperature for 15 minutes. Then, 3 μL of a mixture liquid of FL-PEPTIDE8 (5-FAM-IPTSPITTTYFFFKKK-COOH) (manufactured by Caliper Life Sciences), which is substrate peptide, and ATP (manufactured by Sigma-Aldrich Co. LLC.) was added thereto such that the final concentrations thereof became 4.25 μmol/L and 1 mmol/L, respectively, and an enzyme reaction was performed by allowing to stand at 25° C. for 120 minutes.
After the reaction, the enzyme reaction was stopped by adding 30 μL of a reaction stopper liquid (100 mmol/L HEPES, 11.2 mmol/L EDTA, 5.6% Brij35, pH 7.5) including a 0.5% COATING REAGENT 8 (trade name, manufactured by Perkin Elmer Inc.) thereto. Then, phosphorylated peptide and non-phosphorylated peptide were separated using LABCHIP EZ READER (trade name, manufactured by Caliper Life Sciences), and the porportion of the phosphorylated peptide was quantified.
as §1

[2] = 4.5 nmol/L PI3Kα, PIP2 50 μmol/L, ATP 100 μmol/L

T2 sequence (P28482 whole entry, the tested form may be a part): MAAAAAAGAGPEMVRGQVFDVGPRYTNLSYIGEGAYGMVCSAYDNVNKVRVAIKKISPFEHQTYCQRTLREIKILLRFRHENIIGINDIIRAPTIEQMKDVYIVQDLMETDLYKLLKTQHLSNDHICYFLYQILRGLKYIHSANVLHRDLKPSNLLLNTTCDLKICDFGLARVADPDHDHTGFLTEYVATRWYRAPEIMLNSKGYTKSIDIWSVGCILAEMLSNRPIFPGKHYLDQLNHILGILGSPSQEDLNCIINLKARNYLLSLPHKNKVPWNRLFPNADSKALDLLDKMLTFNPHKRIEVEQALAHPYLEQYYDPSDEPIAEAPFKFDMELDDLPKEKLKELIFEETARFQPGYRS
T1 sequence (P42336 whole entry): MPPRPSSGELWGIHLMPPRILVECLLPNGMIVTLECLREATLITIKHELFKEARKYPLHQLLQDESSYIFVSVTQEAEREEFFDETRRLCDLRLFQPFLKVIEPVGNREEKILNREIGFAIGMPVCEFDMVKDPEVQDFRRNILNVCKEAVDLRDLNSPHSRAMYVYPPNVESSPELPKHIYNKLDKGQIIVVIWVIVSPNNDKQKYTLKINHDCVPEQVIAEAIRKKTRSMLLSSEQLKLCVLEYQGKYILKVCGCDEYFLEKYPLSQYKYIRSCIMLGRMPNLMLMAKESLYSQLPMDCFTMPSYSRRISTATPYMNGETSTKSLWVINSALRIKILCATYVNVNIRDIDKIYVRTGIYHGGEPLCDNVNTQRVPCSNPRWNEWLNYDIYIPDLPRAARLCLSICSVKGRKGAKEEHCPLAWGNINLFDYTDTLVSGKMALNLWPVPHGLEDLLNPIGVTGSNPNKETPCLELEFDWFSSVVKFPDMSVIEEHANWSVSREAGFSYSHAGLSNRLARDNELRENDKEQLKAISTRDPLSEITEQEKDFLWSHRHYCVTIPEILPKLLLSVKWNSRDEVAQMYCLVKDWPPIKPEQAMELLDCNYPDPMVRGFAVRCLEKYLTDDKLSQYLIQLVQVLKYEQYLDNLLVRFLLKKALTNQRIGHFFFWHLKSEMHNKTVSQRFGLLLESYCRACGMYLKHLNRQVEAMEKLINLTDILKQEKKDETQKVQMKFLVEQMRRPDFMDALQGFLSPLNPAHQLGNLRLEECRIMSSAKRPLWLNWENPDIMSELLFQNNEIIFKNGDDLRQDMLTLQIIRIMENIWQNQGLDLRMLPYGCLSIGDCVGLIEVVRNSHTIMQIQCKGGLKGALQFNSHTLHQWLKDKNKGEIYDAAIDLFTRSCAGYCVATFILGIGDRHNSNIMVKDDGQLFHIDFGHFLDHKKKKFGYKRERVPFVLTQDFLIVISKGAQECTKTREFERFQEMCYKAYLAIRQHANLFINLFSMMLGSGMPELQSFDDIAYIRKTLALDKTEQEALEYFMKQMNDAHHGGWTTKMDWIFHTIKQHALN
T1 sequence (P27986 whole entry partner): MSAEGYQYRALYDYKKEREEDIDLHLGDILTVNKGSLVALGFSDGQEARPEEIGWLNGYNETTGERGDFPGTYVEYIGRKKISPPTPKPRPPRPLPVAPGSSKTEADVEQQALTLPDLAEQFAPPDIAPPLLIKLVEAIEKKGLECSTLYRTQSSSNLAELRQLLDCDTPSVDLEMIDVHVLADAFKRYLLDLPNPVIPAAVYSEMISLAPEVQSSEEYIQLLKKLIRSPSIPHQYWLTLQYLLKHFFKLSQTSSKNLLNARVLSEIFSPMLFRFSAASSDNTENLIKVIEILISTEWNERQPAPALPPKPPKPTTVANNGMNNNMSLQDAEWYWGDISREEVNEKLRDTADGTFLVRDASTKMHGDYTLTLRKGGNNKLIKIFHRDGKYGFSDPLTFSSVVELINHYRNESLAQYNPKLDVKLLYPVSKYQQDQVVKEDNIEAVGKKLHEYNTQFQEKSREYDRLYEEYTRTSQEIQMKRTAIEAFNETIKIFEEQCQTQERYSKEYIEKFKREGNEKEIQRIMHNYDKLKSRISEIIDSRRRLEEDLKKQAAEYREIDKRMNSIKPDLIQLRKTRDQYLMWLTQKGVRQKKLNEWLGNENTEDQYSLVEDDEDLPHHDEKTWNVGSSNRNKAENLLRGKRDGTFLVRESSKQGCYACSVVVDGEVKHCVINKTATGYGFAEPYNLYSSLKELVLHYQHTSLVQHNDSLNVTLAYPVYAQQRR

IC50 (human PI3Kα protein; [2]) [nM] | IC50 (human PI3Kα protein) [nM] | IC50 ([1]; ERK2 enzyme assay (2)) [nM] | IC50 [1] [nM] | SMILES
< 1000 | – | – | – | CC(C)c1nnc(Nc2ccc3nccc(Nc4ccccn4)c3n2)s1 [Example 0005]
1000 to 10000 | – | – | – | CCOC(=O)c1csc(Nc2ccc3ncc(-c4cnn(C)c4)cc3n2)n1 [Example 0034, ethyl 2-((7-(1-methyl-1H-pyrazol-4-yl)-1,5-naphthyridin-2-yl)amino)thiazole-4-carboxylate]
< 1000 | – | – | – | Cc1nnc(Sc2ccc3ncc(-c4cnn(C)c4)cc3n2)s1 [Example 0047, 2-methyl-5-((7-(1-methyl-1H-pyrazol-4-yl)-1,5-naphthyridin-2-yl)thio)-1,3,4-thiadiazole]
1000 to 10000 | – | – | – | COc1cncc(Nc2cnc3ccc(Nc4cncc(OC)c4)nc3c2)c1 [Example 0155, N^2,N^7-bis(5-methoxypyridin-3-yl)-1,5-naphthyridine-2,7-diamine]
– | < 1000 | < 1000 | – | CC(C)c1cnnc(Nc2ccc3nccc(-c4ccncc4)c3n2)c1 [Example 0410]
– | < 1000 | < 1000 | – | Cc1cccc(Cn2cc(-c3cnc4ccc(Nc5cc(C(C)C)cnn5)nc4c3)cn2)n1 [Example 0411, N-(5-isopropylpyridazin-3-yl)-7-(1-((6-methylpyridin-2-yl)methyl)-1H-pyrazol-4-yl)-1,5-naphthyridine-2-amine]
– | < 1000 | < 1000 | – | COc1cccc(Cn2cc(-c3cnc4ccc(Nc5cc(C(C)C)cnn5)nc4c3)cn2)n1 [Example 0412, N-(5-isopropylpyridazin-3-yl)-7-(1-((6-methoxypyridin-2-yl)methyl)-1H-pyrazol-4-yl)-1,5-naphthyridine-2-amine]
– | < 1000 | < 1000 | – | CC(C)c1cnnc(Nc2ccc3ncc(-c4cnn(C(C)c5ccccn5)c4)cc3n2)c1 (stereo not shown) [Example 0414]
– | < 1000 | < 1000 | – | CC(C)c1cnnc(Nc2ccc3ncc(-c4cnn(CCCN5CCCCC5=O)c4)cc3n2)c1 [Example 0415, 1-(3-(4-(6-((5-Isopropylpyridazin-3-yl)amino)-1,5-naphthyridin-3-yl)-1H-pyrazol-1-yl)propyl)piperidin-2-one]
– | < 1000 | < 1000 | – | CC(C)c1cnnc(Nc2ccc3ncc(-c4cnn(CCC(=O)N5CCCCC5)c4)cc3n2)c1 [Example 0416]
– | < 1000 | < 1000 | – | CC(C)c1cnnc(Nc2ccc3ncc(-c4cnn(CCCN5CCC(F)(F)CC5)c4)cc3n2)c1 [Example 0419, 7-(1-(3-(4,4-Difluoropiperidin-1-yl)propyl)-1H-pyrazol-4-yl)-N-(5-isopropylpyridazin-3-yl)-1,5-naphthyridine-2-amine]
– | < 1000 | < 1000 | – | CC(=O)Nc1cc(-c2cnc3ccc(Nc4cc(C(C)C)cnn4)nc3c2)ccn1 [Example 0421, N-(4-(6-((5-isopropylpyridazin-3-yl)amino)-1,5-naphthyridin-3-yl)pyridin-2-yl)acetamide]
– | < 1000 | < 1000 | – | CNc1cc(-c2cnc3ccc(Nc4cc(C(C)C)cnn4)nc3c2)ccn1 [Example 0423, N-(5-isopropylpyridazin-3-yl)-7-(2-(methylamino)pyridin-4-yl)-1,5-naphthyridine-2-amine hydrochloride]
– | < 1000 | < 1000 | – | CC(C)c1cnnc(Nc2ccc3ncc(-c4cnn(CCCN5CCN(C)CC5=O)c4)cc3n2)c1 [Example 0425]
– | < 1000 | < 1000 | – | CC(C)c1cnnc(Nc2ccc3ncc(-c4cnn(CCCN5CCC(F)(F)C5)c4)cc3n2)c1 [Example 0427]
– | < 1000 | < 1000 | – | CC(C)c1cnnc(Nc2ccc3ncc(-c4cnn(CCCN5CC[C@H](F)C5)c4)cc3n2)c1 [Example 0428]
– | < 1000 | < 1000 | – | CC(C)c1cnnc(Nc2ccc3ncc(-c4cnn(CCCN5CC[C@@H](F)C5)c4)cc3n2)c1 [Example 0429]
– | < 1000 | < 1000 | – | CC(C)c1cnnc(Nc2ccc3ncc(-c4cnn(CCCN5CCN(C(=O)N(C)C)CC5)c4)cc3n2)c1 [Example 0433]
– | < 1000 | < 1000 | – | CC(=O)N1CCN(CCCn2cc(-c3cnc4ccc(Nc5cc(C(C)C)cnn5)nc4c3)cn2)CC1 [Example 0434]

IC50 (human PI3Kα protein; [2]) [nM] | IC50 (human PI3Kα protein) [nM] | IC50 ([1]; ERK2 enzyme assay (2)) [nM] | IC50 [1] [nM] | SMILES
– | < 1000 | < 1000 | – | CC(=O)N1[C@H](C)CN(CCCn2cc(-c3cnc4ccc(Nc5cc(C(C)C)cnn5)nc4c3)cn2)C[C@@H]1C [Example 0435]
– | < 1000 | < 1000 | – | CC(C)c1cnnc(Nc2ccc3ncc(-c4cnn(CCCN5C[C@@H](C)N(C(=O)N(C)C)[C@@H](C)C5)c4)cc3n2)c1 [Example 0436]
– | < 1000 | < 1000 | – | CCOC(=O)N1CCN(CCCn2cc(-c3cnc4ccc(Nc5cc(C(C)C)cnn5)nc4c3)cn2)CC1 [Example 0437, Ethyl 4-(3-(4-(6-((5-isopropylpyridazin-3-yl)amino)-1,5-naphthyridin-3-yl)-1H-pyrazol-1-yl)propyl)piperazine-1-carboxylate]
– | – | < 1000 | – | Cc1nccn1-c1cnc2ccc(Nc3cc(C(C)C)cnn3)nc2c1 [Example 0513]
– | 10000 to 50000 | – | – | Cn1cc(-c2cnc3ccc(Nc4nccn4C)nc3c2)cn1 [Example 0516, N-(1-methyl-1H-imidazol-2-yl)-7-(1-methyl-1H-pyrazol-4-yl)-1,5-naphthyridine-2-amine]
– | < 1000 | – | – | Cc1ccnc(Nc2ccc3ncc(-c4cnn(C)c4)cc3n2)c1 [Example 0546]
– | – | < 1000 | – | Cn1cc(-c2cnc3ccc(Nc4cc(-c5ccccc5)cnn4)nc3c2)cn1 [Example 0570]
– | – | 10000 to 50000 | – | CC(C)c1cnnc(Nc2ccc3ncc(C(=O)N(C)C)cc3n2)c1 [Example 0643]
– | – | 1000 to 10000 | – | CC(C)c1cnnc(Nc2ccc3ncc(C(=O)NCc4ccccc4)cc3n2)c1 [Example 0647, N-benzyl-6-((5-isopropylpyridazin-3-yl)amino)-1,5-naphthyridine-3-carboxamide]
– | – | 1000 to 10000 | – | CC(C)c1cnnc(Nc2ccc3ncc(C(=O)Nc4ccccc4)cc3n2)c1 [Example 0668]
– | 10000 to 50000 | – | – | Cn1cc(-c2cnc3ccc(Nc4ccccc4N)nc3c2)cn1 [Example 0675, N^1-(7-(1-methyl-1H-pyrazol-4-yl)-1,5-naphthyridin-2-yl)benzene-1,2-diamine]
– | 1000 to 10000 | – | – | Cn1cc(-c2cnc3ccc(Nc4cccc(N)c4)nc3c2)cn1 [Example 0677, N^1-(7-(1-methyl-1H-pyrazol-4-yl)-1,5-naphthyridin-2-yl)benzene-1,3-diamine]
– | < 1000 | – | – | CC(C)c1cnnc(Nc2ccc3ncc(-c4cn(C)nc4-c4ccnc(N(C)C)c4)cc3n2)c1 [Example 0753, 7-(3-(2-(Dimethylamino)pyridin-4-yl)-1-methyl-1H-pyrazol-4-yl)-N-(5-isopropylpyridazin-3-yl)-1,5-naphthyridine-2-amine]
– | – | < 1000 | – | Cn1cc(-c2cnc3ccc(Nc4cc(-c5ccncc5)cnn4)nc3c2)cn1 [Example 0763]
– | < 1000 | – | – | Cn1cc(-c2cnc3ccc(Nc4ccncn4)nc3c2)cn1 [Example 0775, 7-(1-Methyl-1H-pyrazol-4-yl)-N-(pyrimidin-4-yl)-1,5-naphthyridine-2-amine]
– | 10000 to 50000 | – | – | Cn1cc(-c2cnc3ccc(Nc4cc(C(C)(C)C)on4)nc3c2)cn1 [Example 0776, 5-(tert-Butyl)-N-(7-(1-methyl-1H-pyrazol-4-yl)-1,5-naphthyridin-2-yl)isoxazole-3-amine]
– | 1000 to 10000 | – | – | Cc1ccc(S(=O)(=O)NC2CN(c3cnc4ccc(Nc5cc(C(C)C)cnn5)nc4c3)C2)cc1 [Example 0866]
– | – | – | 10000 to 50000 | CC(C)c1cnnc(Nc2ccc3ncc(-c4cnn(C)c4)c(O)c3n2)c1 [Example 0915, 6-((5-Isopropylpyridazin-3-yl)amino)-3-(1-methyl-1H-pyrazol-4-yl)-1,5-naphthyridine-4-ol]
